Entries after “also recorded” stand apart in the source; their conditions may differ.
Key:
[1] = system: endogenous androgen biosynthesis; experiment: study in intact male rats: weights of sex accessory tissue and other organs; assay type: in vivo, male Sprague-Dawley rats; conditions: 7 days; for Adrenal weight (± Sem): intact control 27 ± 2; for Dorsal Lateral Prostate weight (± Sem): intact control 244 ± 12; for Seminal Vesicles weight (± Sem): intact control 394 ± 12; for Ventral Prostate weight (± Sem): intact control 421 ± 15; for Kidney weight (± Sem): intact control 1260 ± 63; for Testis weight (± Sem): intact control 1650 ± 38
Description: Studies with intact male Sprague-Dawley rats (300g body weight) are illustrated for compounds (1) and (2).
Similarly, compound (2), […] rats at a dosage of 20mg per kilo for 7 days produced 20% reduction in weight of the ventral prostate and 28% reduction of the dorsal lateral prostate.
The following data illustrates the inhibiting effect of estryne and pregnyne on Δ^5 -3-ketosteroid isomerase (EC 5.3.3.1) as evidenced by a depression of the wet weight of the sex accessory tissue in the mature male rat treated with the estryne and pregnyne.
A. Male rats were used to assess the effect of estryne on endogenous androgen biosynthesis at varying doses (1-20 mg/kg body weight). […] On the eighth day the animals were sacrificed and the ventral prostate, dorsal lateral prostate, seminal vesicles, testes, kidneys, and adrenals were removed and weighed. Samples of each tissue were preserved in 10% buffered formalin for histological examination.
B. Male rats were treated with 19-norpregnyne by a regimen exactly as described for the estryne.

[2] = target: T1, Δ^5 -3-ketosteroid isomerase (EC 5.3.3.1) (Comamonas testosteroni, UniProt P00947); experiment: irreversible inactivation of crystalline purified bacterial Δ^5-3-ketosteroid isomerase by acetylenic steroids (Kitz and Wilson kinetic analysis); assay type: biochemical, Pseudomonas testosteroni
T1 sequence (P00947 whole entry, stated change not applied): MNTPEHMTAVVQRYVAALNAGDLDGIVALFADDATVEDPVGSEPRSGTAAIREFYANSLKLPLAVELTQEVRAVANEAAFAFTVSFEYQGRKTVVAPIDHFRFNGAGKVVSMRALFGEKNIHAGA
Description: The inactivation is progressive with time, and half-lives in the range of 150-1320 sec are observed at concentrations of 20-200 μM of the two inhibitors. The enzymatic activities of control vessels which received only equivalent volumes of 1,4-dioxane remained constant at initial activities.
The initial rates of inactivation of the isomerase by (1) and (2) can be analyzed by the method of Kitz and Wilson^8 since very satisfactory pseudo-first-order behavior was observed. It is assumed that [I] (inhibitor) >> [E] (enzyme), that [E.I] (the reversible enzyme-inhibitorcomplex) is at all times in equilibrium with enzyme and inhibitor, and that ^k cat >> ^k inh. The scheme for the formation of EI' (the irreversible enzyme-inhibitor derivative) may then be represented as follows.
If the enzyme-inhibitor solution is diluted extensively prior to assay, the active enzyme (ε) = [E] + [E.I]. Then -d(ε)/dt = k3 [E.I.], and K1 = ([E][I])/[EI]. Thus [formula] where Et = total amount of enzyme in system.
If one defines [formula] Consequently double reciprocal plots of kapp with respect to [I] should be linear, with slopes and intercepts permitting the determination of K1 and k3 where the latter is the overall rate constant for the irreversible inhibition process.
From plots of 1n ε (residual enzymatic activity) vs. time, kapp has been determined at five inhibitor concentrations for both compounds 1 and 2, i.e. estryne and pregnyne. Strict linearity of the semilogarithmic plots has been observed in all cases, over greater than two half-lives. A plot of 1/kapp vs. 1/[I] was linear and gave k3 and K1 (FIG. 1). For compound 1, K1 = 56 μM and k3 = 1.98 × 10^-3 sec^-1, and for compound 2, K1 = 32 μM and k3 = 4.10 × 10^-3 sec^-1.
Studies were performed using crystalline purified bacterial Δ^5 -3-ketosteroid isomerase (from P. testosteroni), under pseudo first order conditions using the kinetic analysis of R. Kitz and I. B. Wilson [J. Biol. Chem., 237, 3245 (1964)].

[3] = target: T2, cytosol androgen receptor (prostate androgen binding protein) (Rattus norvegicus, UniProt P15207); experiment: inhibition of nuclear uptake of ^3H-dihydrotestosterone in ventral prostate minces (binding to the prostatic androgen receptor)
T2 construct: freshly minced ventral prostate tissue obtained from rats castrated 24 hours before sacrifice; from tissue; host or cells: ventral prostate minces of castrated rats
T2 sequence (P15207 1-902): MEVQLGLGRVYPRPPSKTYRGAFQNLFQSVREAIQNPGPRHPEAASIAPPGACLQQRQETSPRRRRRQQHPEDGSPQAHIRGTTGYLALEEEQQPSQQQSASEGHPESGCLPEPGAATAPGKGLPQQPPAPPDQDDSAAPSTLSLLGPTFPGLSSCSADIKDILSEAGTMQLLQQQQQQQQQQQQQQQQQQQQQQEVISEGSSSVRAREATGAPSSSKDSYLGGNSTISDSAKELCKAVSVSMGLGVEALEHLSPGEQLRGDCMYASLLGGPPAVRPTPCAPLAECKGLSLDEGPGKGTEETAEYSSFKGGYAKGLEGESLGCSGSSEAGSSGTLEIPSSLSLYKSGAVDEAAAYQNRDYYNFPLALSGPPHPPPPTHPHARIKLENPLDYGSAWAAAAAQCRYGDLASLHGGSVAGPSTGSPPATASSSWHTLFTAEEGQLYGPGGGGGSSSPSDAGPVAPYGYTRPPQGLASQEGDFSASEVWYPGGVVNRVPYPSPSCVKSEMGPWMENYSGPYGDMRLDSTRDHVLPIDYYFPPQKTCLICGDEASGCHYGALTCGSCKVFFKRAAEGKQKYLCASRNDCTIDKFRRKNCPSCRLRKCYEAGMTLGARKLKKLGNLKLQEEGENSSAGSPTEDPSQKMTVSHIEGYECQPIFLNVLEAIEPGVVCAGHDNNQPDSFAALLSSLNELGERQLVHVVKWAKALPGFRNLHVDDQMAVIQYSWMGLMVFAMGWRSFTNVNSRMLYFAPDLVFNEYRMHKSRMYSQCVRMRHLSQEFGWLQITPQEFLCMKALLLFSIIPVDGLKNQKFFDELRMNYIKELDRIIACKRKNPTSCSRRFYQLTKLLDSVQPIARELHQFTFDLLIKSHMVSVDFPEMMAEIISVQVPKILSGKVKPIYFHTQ
Description: The binding to the cytosol androgen receptor was determined by the procedure of Fang (5) with modification. […] The amount of radioactivity in the nuclei is expressed as observed counts per minute per 100 μg DNA.

[4] = target: T1, Δ^5 -3-ketosteroid isomerase (EC 5.3.3.1); experiment: irreversible inactivation of crystalline purified bacterial Δ^5-3-ketosteroid isomerase by acetylenic steroids (Kitz and Wilson kinetic analysis); assay type: biochemical, Pseudomonas testosteroni; conditions: 24 hr at 4° vs. 1 mM potassium phosphate buffer, pH 7.0
[5] = 20mg per kilo per day, i.p. in propylene glycol

C[C@]12CC[C@@H]3C(=O)CCC(=O)CC#CC[C@H]3[C@@H]1CCC2=O [Compound 1, 5,10-secoestr-5-yne-3,10,17-trione] was tested, and the “reduction in weight of the dorsal lateral prostate” value [1, 5] was 25-30%, the “reduction in weight of the ventral prostate” value [1, 5] was 28% and the “reduction in weight of the ventral prostate” value ([1]; 20mg per kilo per day, i.p. in propylene glycol, listed as estryne) was 25-30%. The “dose dependence of the effect on prostatic weight” value ([1]; 1-20 mg/kg, in words) was “dose dependent”, the “effect on weight of the adrenal” value ([1]; in words) was “no effect” and the “effect on weight of the kidney” value ([1]; in words) was “no effect”. The “effect on weight of the seminal vesicles” value ([1]; in words) was “Only a modest decrease”, the “effect on weight of the testes” value ([1]; in words) was “no effect” and the “effect on wet weight of the dorsal-lateral prostate” value ([1]; in words) was “depresses the wet weight”. For the same compound, the “effect on wet weight of the ventral prostate” value ([1]; in words) was “depresses the wet weight”, the “Adrenal weight (± Sem)” value ([1]; estryne 1 mg/kg daily i.p.) was 28 ± 2 mg and the “Dorsal Lateral Prostate weight (± Sem)” value ([1]; estryne 1 mg/kg daily i.p.) was 212 ± 19 mg. The “Seminal Vesicles weight (± Sem)” value ([1]; estryne 1 mg/kg daily i.p.) was 380 ± 18 mg, the “Ventral Prostate weight (± Sem)” value ([1]; estryne 1 mg/kg daily i.p.) was 435 ± 23 mg and the “Kidney weight (± Sem)” value ([1]; estryne 1 mg/kg daily i.p.) was 1320 ± 68 mg. For the same compound, the “Testis weight (± Sem)” value ([1]; estryne 1 mg/kg daily i.p.) was 1650 ± 60 mg, the “Adrenal weight (± Sem)” value ([1]; estryne 5 mg/kg daily i.p.) was 26 ± 2 mg and the “Dorsal Lateral Prostate weight (± Sem)” value ([1]; estryne 5 mg/kg daily i.p.) was 195 ± 8 mg. For the same compound, the “Seminal Vesicles weight (± Sem)” value ([1]; estryne 5 mg/kg daily i.p.) was 368 ± 16 mg, the “Ventral Prostate weight (± Sem)” value ([1]; estryne 5 mg/kg daily i.p.) was 385 ± 8 mg and the “Kidney weight (± Sem)” value ([1]; estryne 5 mg/kg daily i.p.) was 1090 ± 39 mg. The “Testis weight (± Sem)” value ([1]; estryne 5 mg/kg daily i.p.) was 1590 ± 54 mg, the “Adrenal weight (± Sem)” value ([1]; estryne 10 mg/kg daily i.p.) was 30 ± 2 mg and the “Dorsal Lateral Prostate weight (± Sem)” value ([1]; estryne 10 mg/kg daily i.p.) was 188 ± 6 mg. For the same compound, the “Seminal Vesicles weight (± Sem)” value ([1]; estryne 10 mg/kg daily i.p.) was 387 ± 14 mg, the “Ventral Prostate weight (± Sem)” value ([1]; estryne 10 mg/kg daily i.p.) was 364 ± 25 mg and the “Kidney weight (± Sem)” value ([1]; estryne 10 mg/kg daily i.p.) was 1150 ± 42 mg. The “Testis weight (± Sem)” value ([1]; estryne 10 mg/kg daily i.p.) was 1580 ± 59 mg, the “Adrenal weight (± Sem)” value ([1]; estryne 20 mg/kg daily i.p.) was 30 ± 3 mg and the “Dorsal Lateral Prostate weight (± Sem)” value ([1]; estryne 20 mg/kg daily i.p.) was 177 ± 15 mg. For the same compound, the “Seminal Vesicles weight (± Sem)” value ([1]; estryne 20 mg/kg daily i.p.) was 309 ± 23 mg, the “Ventral Prostate weight (± Sem)” value ([1]; estryne 20 mg/kg daily i.p.) was 302 ± 28 mg and the “Kidney weight (± Sem)” value ([1]; estryne 20 mg/kg daily i.p.) was 1040 ± 35 mg. For the same compound, the “Testis weight (± Sem)” value ([1]; estryne 20 mg/kg daily i.p.) was 1420 ± 64 mg, the “irreversible inhibition / inactivation of the enzyme” value ([2]; in words) was “rapid irreversible inhibition; also recorded: rapid irreversible and complete inactivation of the enzyme; also recorded: Powerful irreversible inhibition” and the “half-life of enzyme inactivation” value ([2]; pH 7.0, 20-200 μM of the two inhibitors, in 1,4-dioxane) was 2.5 to 22 min. For the same compound, the kinact ([2]; pH 7, pseudo first order conditions, five inhibitor concentrations (10-fold range), read-out: k3, overall rate constant for the irreversible inhibition process) was 0.00198 s⁻¹, the Ki ([2]; pseudo first order conditions, five inhibitor concentrations (10-fold range), read-out: K1 (KI), inhibitor dissociation constant) was 56 µM and the “inhibition of nuclear uptake of ^3H-dihydrotestosterone” value ([3]; 2 × 10^-6 M with ^3H-DHT 2 × 10^-9 M) was “approximately 50%”. For the same compound, the remaining activity at 2 µM ([3]; rat, 1 h, pH 7.4, steroid 2 × 10^-6 M with ^3H-DHT 2 × 10^-9 M, read-out: nuclear uptake of ^3H-DHT, % Control) was 56%, the “CPM/100 DNA (nuclear uptake of ^3H-DHT)” value ([3]; steroid 2 × 10^-6 M with ^3H-DHT 2 × 10^-9 M, control 8,471) was 4,771 CPM/100 DNA and the “restoration of enzymatic activity by prolonged dialysis” value [4] was “inability to restore enzymatic activity”.

Source: patent US4087461A, “Anti-androgenic steroids” (The Johns Hopkins University, priority 1977, dated 1978)
